Measurements from ChEMBL document CHEMBL1201862, “PubChem BioAssay data set” (2004).
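Each compound was tested at five concentrations against cells in 96-well plates for 48 hours. The concentration for 50% growth inhibition is given as GI50.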 Active and inactive are the calls of the source. Cut-off read from the data, not from the text of the source: active = GI50 up to about 1.1 µM and inactive = higher.

Columns and labels:
Experiment in all cases: NCI-60 cell line screen, 48 h
SK-MEL-5 = tested on: SK-MEL-5
U-251 = tested on: U-251
SN12C = tested on: SN12C
SNB-75 = tested on: SNB-75
UACC-62 = tested on: UACC-62
OVCAR-8 = tested on: OVCAR-8
K562 = tested on: K562
SF-295 = tested on: SF-295
LOX IMVI = tested on: LOX IMVI
CCRF-CEM = tested on: CCRF-CEM
HOP-92 = tested on: HOP-92
COLO 205 = tested on: COLO 205
NCI/ADR-RES = tested on: NCI/ADR-RES
RXF 393 = tested on: RXF 393
IGROV-1 = tested on: IGROV-1
SW-620 = tested on: SW-620
CAKI-1 = tested on: CAKI-1
KM12 = tested on: KM12
HCT-15 = tested on: HCT-15
HCC 2998 = tested on: HCC 2998

Structure (SMILES) | GI50 (SK-MEL-5) | GI50 (U-251) | GI50 (SN12C) | GI50 (SNB-75) | GI50 (UACC-62) | GI50 (OVCAR-8) | GI50 (K562) | GI50 (SF-295) | GI50 (LOX IMVI) | GI50 (CCRF-CEM) | GI50 (HOP-92) | GI50 (COLO 205) | GI50 (NCI/ADR-RES) | GI50 (RXF 393) | GI50 (IGROV-1) | GI50 (SW-620) | GI50 (CAKI-1) | GI50 (KM12) | GI50 (HCT-15) [µM] | GI50 (HCC 2998)
CC(NC(=O)C(NC(=O)CNC(=O)OC(C)(C)C)C(C)C)C(=O)Oc1c(Cl)c(Cl)c(Cl)c(Cl)c1Cl (centres undefined) | 17.1 µM (inactive) | 21.1 µM (inactive) | 19.2 µM (inactive) | 28 µM (inactive) | 18.2 µM (inactive) | 19.4 µM (inactive) | 50.7 µM (inactive) | 14.5 µM (inactive) | 15.5 µM (inactive) | 51.1 µM (inactive) | 16.3 µM (inactive) | 17 µM (inactive) | 17.5 µM (inactive) | 17.5 µM (inactive) | 20.3 µM (inactive) | 24.7 µM (inactive) | 19 µM (inactive) | 15.1 µM (inactive) | 17.5 | 19.6 µM (inactive)
CC1(CO)C(O)CCC2(C)C1C(O)CC1CC3CC12CCC3(O)CO (centres undefined) | > 225 µM (inactive) | > 225 µM (inactive) | > 225 µM (inactive) | > 189 µM (inactive) | > 225 µM (inactive) | > 213 µM (inactive) | > 225 µM (inactive) | 91.2 µM (inactive) | > 225 µM (inactive) | 138 µM (inactive) | > 225 µM (inactive) | > 225 µM (inactive) | > 225 µM (inactive) | > 225 µM (inactive) | > 225 µM (inactive) | > 225 µM (inactive) | > 225 µM (inactive) | > 225 µM (inactive) | > 225 | > 225 µM (inactive)
CCOCC(=O)N(C)c1cccc2c3c(n(C)c12)CCCCC3 | > 100 µM (inactive) | > 100 µM (inactive) | > 100 µM (inactive) | > 46.1 µM (inactive) | > 100 µM (inactive) | > 100 µM (inactive) | > 62.4 µM (inactive) | > 100 µM (inactive) | > 100 µM (inactive) | > 58.9 µM (inactive) | > 94.8 µM (inactive) | > 100 µM (inactive) | > 100 µM (inactive) | > 89.7 µM (inactive) | > 100 µM (inactive) | > 100 µM (inactive) | 0.798 µM (active) | > 100 µM (inactive) | > 100 | > 100 µM (inactive)
C=CCN1C(=O)/C(=C/c2ccccc2)N=C1SC1OC(COC(=O)c2ccccc2)C(OC(=O)c2ccccc2)C1OC(=O)c1ccccc1 (centres undefined) | > 100 µM (inactive) | > 100 µM (inactive) | – | > 100 µM (inactive) | 31.3 µM (inactive) | > 100 µM (inactive) | 46.2 µM (inactive) | > 100 µM (inactive) | 78.3 µM (inactive) | 34.9 µM (inactive) | 60.5 µM (inactive) | > 100 µM (inactive) | > 100 µM (inactive) | > 100 µM (inactive) | > 100 µM (inactive) | 79.8 µM (inactive) | 97.9 µM (inactive) | > 100 µM (inactive) | > 100 | > 100 µM (inactive)
COC(=O)C1=C(OC(=O)/C(=C/c2ccc(Cl)cc2)c2ccc(Cl)cc2)C(C(=O)OC)[C@@]2(O)[C@@H](C(=O)OC)[C@H](C)C[C@@H]1[C@@H]2C(=O)OC (some centres undefined) | > 100 µM (inactive) | 17.8 µM (inactive) | > 100 µM (inactive) | > 56 µM (inactive) | > 100 µM (inactive) | 25.1 µM (inactive) | 2.33 µM (inactive) | 3.22 µM (inactive) | > 100 µM (inactive) | > 37.2 µM (inactive) | 6.67 µM (inactive) | > 76.4 µM (inactive) | 17.2 µM (inactive) | > 61.4 µM (inactive) | 27.6 µM (inactive) | 78.2 µM (inactive) | > 100 µM (inactive) | 11 µM (inactive) | > 81.3 | > 73.6 µM (inactive)
COC(=O)/C(=C\c1ccco1)P(=O)(OC)OC | 62.4 µM (inactive) | 41 µM (inactive) | 39.9 µM (inactive) | 35.2 µM (inactive) | 47.6 µM (inactive) | 31.5 µM (inactive) | > 100 µM (inactive) | 20 µM (inactive) | 19.9 µM (inactive) | 30.5 µM (inactive) | 25.2 µM (inactive) | > 100 µM (inactive) | 24.5 µM (inactive) | 24.4 µM (inactive) | > 100 µM (inactive) | 89.5 µM (inactive) | 25.2 µM (inactive) | > 100 µM (inactive) | 75.5 | > 100 µM (inactive)
C[C@]1(O)CC(=O)c2c(c(-c3ccc4cc5c(c(O)c4c3O)C(=O)C[C@@](C)(O)C5)c3cccc(O)c3c2O)C1 | 3.66 µM (inactive) | 4.02 µM (inactive) | 6.22 µM (inactive) | 7.59 µM (inactive) | 5.64 µM (inactive) | 5.02 µM (inactive) | 11.9 µM (inactive) | 4.86 µM (inactive) | 6.37 µM (inactive) | 6.71 µM (inactive) | 2.58 µM (inactive) | 1.79 µM (inactive) | 5.15 µM (inactive) | 4.58 µM (inactive) | 4.67 µM (inactive) | 6 µM (inactive) | 5.14 µM (inactive) | 3.31 µM (inactive) | 3.76 | 4.58 µM (inactive)
CC1(C)O[C@H](C(=O)O)[C@@H](C(=O)O)O1 | > 100 µM (inactive) | > 100 µM (inactive) | > 100 µM (inactive) | > 100 µM (inactive) | > 100 µM (inactive) | > 100 µM (inactive) | > 100 µM (inactive) | > 100 µM (inactive) | > 100 µM (inactive) | > 100 µM (inactive) | > 100 µM (inactive) | > 100 µM (inactive) | > 100 µM (inactive) | > 100 µM (inactive) | > 100 µM (inactive) | > 100 µM (inactive) | > 100 µM (inactive) | > 100 µM (inactive) | > 100 | > 100 µM (inactive)
N#CC1(C#N)C2CCCCC23OC(=N)C1(C#N)C(c1ccccc1)O3 (centres undefined) | 16.1 µM (inactive) | 17.6 µM (inactive) | 13.1 µM (inactive) | 0.213 µM (active) | 17.9 µM (inactive) | 21 µM (inactive) | 7.11 µM (inactive) | 69 µM (inactive) | 17.3 µM (inactive) | 5.24 µM (inactive) | 15.5 µM (inactive) | 13.4 µM (inactive) | 41.5 µM (inactive) | 31.8 µM (inactive) | 19 µM (inactive) | 14.8 µM (inactive) | 10.8 µM (inactive) | 8.49 µM (inactive) | 12.4 | 14.2 µM (inactive)
